Results from doi:10.1101/2025.05.23.655777v1 (biorxiv, 2025).

Molecular target: GABA-AT; GABA aminotransferase 1 (recombinant) (Arabidopsis thaliana, UniProt Q94CE5)
Assay: inhibition kinetics, LDH-coupled or HPLC assay, competitive fit
Format: biochemical

N[C@@H](CS)C(=O)O [L-cysteine]
Ki: 420 µM
